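Cells were grown in 96-well plates and exposed to each compound for 48 hours at five concentrations; endpoints were interpolated linearly between bracketing concentrations, or set to the highest concentration if not reached. At the GI50, growth is halved. TGI is the concentration that stops growth completely.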
Experiments:
Assay in all cases: NCI anticancer screen, dose series, 48 h
[1] = test system: CCRF-CEM leukemia
[2] = test system: OVCAR-3 ovarian
[3] = test system: NCI-H23 lung
[4] = test system: BT-549 breast
[5] = test system: A549 NSCLC
[6] = test system: MDA-MB-231 breast
[7] = test system: CAKI-1 renal
[8] = test system: K-562 leukemia
[9] = test system: HL-60(TB) leukemia
[10] = test system: COLO 205 colon

SMILES	GI50 [1] [µM]	TGI [1] [µM]	GI50 [2] [µM]	TGI [2] [µM]	GI50 [3] [µM]	TGI [3] [µM]	GI50 [4] [µM]	TGI [4] [µM]	TGI [5] [µM]	GI50 [6] [µM]	TGI [6] [µM]	GI50 [7] [µM]	TGI [7] [µM]	GI50 [8] [µM]	TGI [8] [µM]	GI50 [9] [µM]	TGI [9] [µM]	GI50 [10] [µM]	TGI [10] [µM]	GI50 [5] [µM]
COC(C(=O)[C@@H](O)[C@@H](C)O)[C@@H]1Cc2cc3cc(O[C@H]4C[C@@H](O[C@H]5C[C@@H](O)[C@H](O)C(C)O5)[C@H](O)C(C)O4)c(C)c(O)c3c(O)c2C(=O)[C@H]1O[C@H]1C[C@@H](O[C@H]2C[C@@H](O[C@H]3C[C@@H](O)[C@H](OC)C(C)O3)[C@@H](O)C(C)O2)[C@H](O)C(C)O1 (stereo partly specified)	0.0425	> 13.1	0.0212	1.04	0.0184	0.234	0.0219	0.258	> 33.3	0.0691	> 33.3	0.601	> 33.3	0.0224	> 33.3	0.0651	0.767	0.0145	0.0521	–
Cc1ncc([N+](=O)[O-])n1CCNS(=O)(=O)CCCn1ncnc1[N+](=O)[O-]	–	> 100	–	> 100	–	> 100	–	> 100	> 100	–	> 100	–	> 100	–	> 100	–	> 100	–	> 100	–
N#Cc1ccc(OC(=O)Nc2ccc(Cl)c(Cl)c2)cc1	3.08	16.1	3.01	9.1	2.79	13.7	9.93	44.2	> 100	4.42	23.3	3.4	18.2	3.4	> 100	5.7	30.9	3.79	11.4	3.43
O=c1[nH]c(=O)n([C@H]2CCCO2)cc1F	527	> 5000	1650	> 5000	936	> 5000	–	> 5000	> 5000	–	> 5000	2100	> 5000	2770	> 5000	1030	> 5000	1090	> 5000	625
CC[C@@]1(O)C(=O)OCc2c1cc1n(c2=O)Cc2c-1nc1cc(F)c(C)c3c1c2[C@@H](N)CC3	< 0.01	> 100	0.0339	0.907	< 0.01	0.0638	< 0.01	0.199	1.15	0.162	> 100	< 0.01	0.101	< 0.0117	> 100	< 0.01	–	0.0265	0.837	< 0.01
COC(=O)c1cc(/C=C/c2ccc(S(N)(=O)=O)cc2)ccc1O	41	> 100	16.5	62.7	> 100	> 100	16.3	56.2	> 100	24.9	60.5	28.6	> 100	> 100	> 100	> 100	> 100	29.8	> 100	29.6
Cc1cc2c(nn1)-c1ccccc1C2=O	–	> 10	–	> 10	–	> 10	–	> 10	> 10	–	> 10	–	> 10	–	> 10	–	> 10	–	> 10	–
S=C1SC2=Nc3ccccc3CN2C2=NCCN12	36.7	> 100	80.8	> 100	> 100	> 100	99.9	> 100	> 100	> 100	> 100	> 100	> 100	32.8	> 100	89.2	> 100	54.4	> 100	> 100
Nc1nc(N)nc(CCCc2nc(N)nc(N)n2)n1	–	> 100	–	> 100	–	> 100	–	> 100	> 100	–	> 100	–	> 100	–	> 100	–	> 100	–	> 100	–
